# How the values were obtained:
# Assay in all cases: in vitro antibacterial activity (MIC), agar dilution
# Format in all cases: cell-based
# [1] = test system: Streptococcus pyogenes PIU 2548; settings: organism code NN; BHI agar, 35-37° C., 20 to 24 hours; unit assumed
# How it was run: (§1)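 Plates of BHI agar were prepared with twelve aqueous dilutions of compound, then inoculated at 1:100 dilution, or 1:10 for slow growers like Streptococcus. After incubation they were inspected, and the lowest concentration yielding no growth, slight haze or sparse colonies was recorded as MIC.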
# [2] = test system: Streptococcus Pneumonia ATCC6303; settings: organism code XX; BHI agar, 35-37° C., 20 to 24 hours; unit assumed
# How it was run: as §1
# [3] = test system: Streptococcus Pneumonia 5979; settings: organism code ZZ; BHI agar, 35-37° C., 20 to 24 hours; unit assumed
# How it was run: as §1
# [4] = test system: Streptococcus bovis A-5169; settings: organism code JJ; BHI agar, 35-37° C., 20 to 24 hours; unit assumed
# How it was run: as §1
# [5] = test system: Staphylococcus aureus CMX 553; settings: organism code FF; BHI agar, 35-37° C., 20 to 24 hours; unit assumed
# How it was run: as §1
# [6] = test system: Staphylococcus epidermidis 3519; settings: organism code HH; BHI agar, 35-37° C., 20 to 24 hours; unit assumed
# How it was run: as §1
# [7] = test system: Staphylococcus aureus A5177; settings: organism code BB; BHI agar, 35-37° C., 20 to 24 hours; unit assumed
# How it was run: as §1
# Escherichia coli JUHL = settings: organism code QQ; BHI agar, 35-37° C., 20 to 24 hours; unit assumed
# How it was run: as §1
# [8] = test system: Streptococcus pyogenes EES61; settings: organism code LL; BHI agar, 35-37° C., 20 to 24 hours; unit assumed
# How it was run: as §1
# [9] = test system: Nocardia Asteroides ATCC9970; settings: organism code VV; BHI agar, 35-37° C., 20 to 24 hours; unit assumed
# How it was run: as §1
# [10] = test system: Mycobacterium smegmatis ATCC 114; settings: organism code UU; BHI agar, 35-37° C., 20 to 24 hours; unit assumed
# How it was run: as §1
# [11] = test system: Haemophilis Influenzae DILL AMP R; settings: organism code WW; BHI agar, 35-37° C., 20 to 24 hours; unit assumed
# How it was run: as §1
# [12] = test system: Micrococcus luteus ATCC 9341; settings: organism code OO; BHI agar, 35-37° C., 20 to 24 hours; unit assumed
# How it was run: (§2)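 Agar dilution in BHI agar, twelve successive compound dilutions. Inoculum 1:100, or 1:10 for slow-growing strains (e.g. Streptococcus), replicator-spotted. Read by eye; MIC = lowest concentration with no growth, slight haze or sparsely isolated colonies relative to growth control.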
# Escherichia coli SS = settings: organism code RR; BHI agar, 35-37° C., 20 to 24 hours; unit assumed
# How it was run: as §1
# [13] = test system: Staphylococcus aureus NCTC10649M; settings: organism code EE; BHI agar, 35-37° C., 20 to 24 hours; unit assumed
# How it was run: as §1
# [14] = test system: Staphylococcus aureus CMX 642A; settings: organism code DD; BHI agar, 35-37° C., 20 to 24 hours; unit assumed
# How it was run: as §1
# Escherichia coli DC-2 = settings: organism code SS; BHI agar, 35-37° C., 20 to 24 hours; unit assumed
# How it was run: as §1
# [15] = test system: Enterococcus faecium ATCC 8043; settings: organism code II; BHI agar, 35-37° C., 20 to 24 hours; unit assumed
# How it was run: as §1
# [16] = test system: Micrococcus luteus ATCC 4698; settings: organism code PP; BHI agar, 35-37° C., 20 to 24 hours; unit assumed
# How it was run: as §2
# Candida albicans CCH 442 = settings: organism code TT; BHI agar, 35-37° C., 20 to 24 hours; unit assumed
# How it was run: as §1
# [17] = test system: Streptococcus pyogenes 930; settings: organism code MM; BHI agar, 35-37° C., 20 to 24 hours; unit assumed
# How it was run: as §1
# [18] = test system: Staphylococcus aureus A-5278; settings: organism code CC; BHI agar, 35-37° C., 20 to 24 hours; unit assumed
# How it was run: as §1
# [19] = test system: Staphylococcus aureus 1775; settings: organism code GG; BHI agar, 35-37° C., 20 to 24 hours; unit assumed
# How it was run: as §1
# [20] = test system: Streptococcus agalactiae CMX 508; settings: organism code KK; BHI agar, 35-37° C., 20 to 24 hours; unit assumed
# How it was run: as §1
# [21] = test system: Streptococcus Pneumonia 5649; settings: organism code ZZA; BHI agar, 35-37° C., 20 to 24 hours; unit assumed
# How it was run: as §1
# [22] = test system: Staphylococcus aureus ATCC 6538P; settings: organism code AA; BHI agar, 35-37° C., 20 to 24 hours; unit assumed
# How it was run: as §1
# [23] = test system: Streptococcus Pneumonia GYR 1171; settings: organism code YY; BHI agar, 35-37° C., 20 to 24 hours; unit assumed
# How it was run: as §1
Compound,MIC [1] [µg/mL],MIC [2] [µg/mL],MIC [3] [µg/mL],MIC [4] [µg/mL],MIC [5] [µg/mL],MIC [6] [µg/mL],MIC [7] [µg/mL],MIC (Escherichia coli JUHL) [µg/mL],MIC [8] [µg/mL],MIC [9] [µg/mL],MIC [10] [µg/mL],MIC [11] [µg/mL],MIC [12] [µg/mL],MIC (Escherichia coli SS) [µg/mL],MIC [13] [µg/mL],MIC [14] [µg/mL],MIC (Escherichia coli DC-2) [µg/mL],MIC [15] [µg/mL],MIC [16] [µg/mL],MIC (Candida albicans CCH 442) [µg/mL],also measured
CC[C@H]1OC(=O)[C@H](C)C(=O)[C@H](C)[C@@H](O[C@@H]2O[C@H](C)C[C@H](N(C)C)[C@H]2O)[C@](C)(OC/C=C/c2nc(-c3cccs3)cs2)C[C@@H](C)C(=O)[C@H](C)[C@H]2NC(=O)O[C@@]21C [Example 67],0.1,0.03,32,0.01,0.1,0.1,0.1,> 100,0.01,0.1,0.39,8,0.02,0.78,0.1,0.1,> 100,0.05,0.1,> 100,MIC [17]: 12.5 µg/mL; MIC [18]: > 100 µg/mL; MIC [19]: > 100 µg/mL; MIC [20]: 0.01 µg/mL; MIC [21]: 0.25 µg/mL; MIC [22]: 0.1 µg/mL; MIC [23]: 0.03 µg/mL
CC[C@H]1OC(=O)[C@H](C)C(=O)[C@H](C)[C@@H](O[C@@H]2O[C@H](C)C[C@H](N(C)C)[C@H]2O)[C@](C)(OC/C=C/c2cnc(-c3cccs3)s2)C[C@@H](C)C(=O)[C@H](C)[C@H]2NC(=O)O[C@@]21C [Example 57],0.1,≤ 0.004,0.5,0.02,0.1,0.05,0.05,100,0.01,0.05,0.2,4,0.02,0.39,0.2,0.05,100,0.05,0.05,> 100,MIC [17]: 25 µg/mL; MIC [18]: > 100 µg/mL; MIC [19]: 100 µg/mL; MIC [20]: 0.01 µg/mL; MIC [21]: 0.25 µg/mL; MIC [22]: 0.1 µg/mL; MIC [23]: ≤ 0.004 µg/mL
CC[C@H]1OC(=O)[C@H](C)C(=O)[C@H](C)[C@@H](O[C@@H]2O[C@H](C)C[C@H](N(C)C)[C@H]2O)[C@](C)(OC/C=C/c2cncc(-c3ncccn3)c2)C[C@@H](C)C(=O)[C@H](C)[C@H]2NC(=O)O[C@@]21C [Example 46],0.2,0.03,128,0.01,0.2,0.1,0.2,50,0.02,0.05,6.2,4,0.05,0.39,0.2,0.2,100,0.05,0.2,> 100,MIC [17]: 12.5 µg/mL; MIC [18]: > 100 µg/mL; MIC [19]: > 100 µg/mL; MIC [20]: 0.02 µg/mL; MIC [21]: 0.5 µg/mL; MIC [22]: 0.1 µg/mL; MIC [23]: 0.03 µg/mL
CC[C@H]1OC(=O)[C@H](C)C(=O)[C@H](C)[C@@H](O[C@@H]2O[C@H](C)C[C@H](N(C)C)[C@H]2O)[C@](C)(OC/C=C/c2cncc(-c3nccs3)c2)C[C@@H](C)C(=O)[C@H](C)[C@H]2NC(=O)O[C@@]21C [Example 51],0.2,≤ 0.004,> 128,0.01,0.1,0.1,0.05,100,0.02,0.05,0.39,2,0.01,0.2,0.1,0.1,25,0.05,0.2,> 100,MIC [17]: 6.2 µg/mL; MIC [18]: > 100 µg/mL; MIC [19]: > 100 µg/mL; MIC [20]: 0.01 µg/mL; MIC [21]: 0.25 µg/mL; MIC [22]: 0.1 µg/mL; MIC [23]: ≤ 0.004 µg/mL
